{"source": "paper PMC10388311", "about": "“Innovative Strategy toward Mutant CFTR Rescue in Cystic Fibrosis: Design and Synthesis of Thiadiazole Inhibitors of the E3 Ligase RNF5” (Journal of Medicinal Chemistry, 2023)", "key": {"[1]": {"target": "F508del-CFTR in CFBE41o– cells (Homo sapiens, UniProt Q99942)", "sequence (Q99942 2-180)": "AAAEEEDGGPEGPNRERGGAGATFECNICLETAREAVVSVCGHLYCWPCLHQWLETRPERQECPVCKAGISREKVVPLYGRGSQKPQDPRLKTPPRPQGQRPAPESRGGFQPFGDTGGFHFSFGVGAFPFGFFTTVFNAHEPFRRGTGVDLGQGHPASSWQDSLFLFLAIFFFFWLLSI", "sequence (P13569 with tags, fused parts or gaps DEL508-508 partner)": "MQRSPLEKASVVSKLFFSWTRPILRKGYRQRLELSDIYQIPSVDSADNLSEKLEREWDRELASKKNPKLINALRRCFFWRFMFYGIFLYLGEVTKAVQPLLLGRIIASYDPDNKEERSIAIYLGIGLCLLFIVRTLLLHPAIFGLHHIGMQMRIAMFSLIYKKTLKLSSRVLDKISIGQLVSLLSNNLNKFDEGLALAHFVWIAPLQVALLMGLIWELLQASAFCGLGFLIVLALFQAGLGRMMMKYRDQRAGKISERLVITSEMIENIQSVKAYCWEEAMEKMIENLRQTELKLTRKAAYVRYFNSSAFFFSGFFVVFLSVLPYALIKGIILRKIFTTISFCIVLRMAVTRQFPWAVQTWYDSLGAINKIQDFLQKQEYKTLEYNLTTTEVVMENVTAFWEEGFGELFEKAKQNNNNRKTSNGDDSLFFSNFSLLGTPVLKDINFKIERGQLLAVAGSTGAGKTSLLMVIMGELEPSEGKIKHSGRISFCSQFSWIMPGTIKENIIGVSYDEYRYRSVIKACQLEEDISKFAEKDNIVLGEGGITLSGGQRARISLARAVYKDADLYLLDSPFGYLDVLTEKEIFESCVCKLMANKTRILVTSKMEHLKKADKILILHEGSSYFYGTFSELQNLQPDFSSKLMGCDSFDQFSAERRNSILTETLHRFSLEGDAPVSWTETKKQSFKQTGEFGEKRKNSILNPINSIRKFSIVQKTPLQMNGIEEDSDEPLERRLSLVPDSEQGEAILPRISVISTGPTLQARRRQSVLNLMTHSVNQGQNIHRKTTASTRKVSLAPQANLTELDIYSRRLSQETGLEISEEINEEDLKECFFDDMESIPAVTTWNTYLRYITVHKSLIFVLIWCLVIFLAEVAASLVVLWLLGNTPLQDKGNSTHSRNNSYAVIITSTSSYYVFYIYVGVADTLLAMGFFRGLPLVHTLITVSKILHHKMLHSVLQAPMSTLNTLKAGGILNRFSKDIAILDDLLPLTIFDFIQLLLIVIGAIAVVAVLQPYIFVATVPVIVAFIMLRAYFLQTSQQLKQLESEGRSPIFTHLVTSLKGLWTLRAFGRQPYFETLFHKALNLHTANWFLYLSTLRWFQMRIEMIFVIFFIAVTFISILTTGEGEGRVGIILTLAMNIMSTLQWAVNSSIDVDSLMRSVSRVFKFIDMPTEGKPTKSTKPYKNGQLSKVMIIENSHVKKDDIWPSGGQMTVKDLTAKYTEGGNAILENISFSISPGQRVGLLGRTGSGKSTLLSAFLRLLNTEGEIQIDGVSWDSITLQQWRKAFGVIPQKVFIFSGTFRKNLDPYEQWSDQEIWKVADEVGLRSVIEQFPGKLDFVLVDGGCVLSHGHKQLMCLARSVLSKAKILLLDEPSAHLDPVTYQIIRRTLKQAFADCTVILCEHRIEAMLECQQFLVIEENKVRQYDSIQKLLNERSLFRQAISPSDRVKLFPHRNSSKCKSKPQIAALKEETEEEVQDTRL", "assay": "HS-YFP microfluorimetric assay of F508del-CFTR rescue (corrector activity)", "format": "cell-based", "conditions": "CFBE41o– cells co-expressing F508del-CFTR and HS-YFP, 24 h treatment, Figure 5", "method": "As a primary screen, the new thiadiazole derivatives 1–46 (Table 1) were tested for their ability to rescue the F508del-CFTR trafficking defect in CFBE41o^– cells, stably co-expressing F508del-CFTR and the HS-YFP (Figure 5). This cell line has been extensively used by our group, in combination with the microfluorimetric assay based on the HS-YFP, to identify and characterize many CFTR correctors.[39],[47] This assay relies on the hypothesis that RNF5 inhibition results in increased mutant CFTR processing and activity. Therefore, it can easily identify putative RNF5 inhibitors, but not other types of RNF5-binding compounds that could have no effect or have a negative effect on CFTR function, such as RNF5 activators (see analog-1). Thus, we opted for this assay as our primary aim was the identification of RNF5 inhibitors as a possible therapeutic strategy in CF. Twenty-four hours after seeding on 96-well plates, CFBE41o^– cells stably expressing F508del-CFTR and the HS-YFP were treated with test compounds at the desired concentration, one compound per well. Cells treated with vehicle alone (DMSO) and with corrector VX-809 (1 μM), respectively, served as negative and positive controls. At the time of the assay, cells were washed with PBS containing (in […]) 137 NaCl, 2.7 KCl, 8.1 Na2HPO4, 1.5 KH2PO4, 1 CaCl2, and 0.5 MgCl2. Cells were then incubated for 25 min with […] of PBS plus forskolin (20 μM) and VX-770 (1 μM) to maximally stimulate F508del-CFTR. Cells were then transferred to a microplate reader (FluoStar Galaxy; BMG Labtech, Offenburg, Germany) for CFTR activity determination. The plate reader was equipped with high-quality excitation (HQ500/20X: 500 ± 10 nm) and emission (HQ535/30M: 535 ± 15 nm) filters for YFP (Chroma Technology). Each assay comprised a continuous 14 s fluorescence reading and 2 s before and 12 s after injection of […] of an iodide-containing solution (PBS with Cl^– replaced by I^–; final I^– concentration […]). Data were normalized to the initial background-subtracted fluorescence. To determine the I^– influx rate, the final 11 s of the data for each well was fitted with an exponential function to extrapolate initial slope (dF/dt). Reproducibility of results was confirmed by performing three independent experiments. CFBE41o^– cells co-expressing F508del-CFTR and the HS-YFP were reverse-transfected with 50 nM (final concentration) siRNAs (Stealth, Life Technologies) in the presence of lipofectamine 2000 as a transfection agent. The following day, the medium was changed, and the cells were incubated at 37 °C for additional 24 h treated with test compounds at the desired concentration, prior to processing the cells for the YFP-based functional assay."}, "[2]": {"system": "ATG4B-mediated basal autophagy in F508del-CFTR-expressing CFBE41o– cells", "assay": "Labeling of autophagic vacuoles with monodansylcadaverine (MDC)", "format": "cell-based, human", "conditions": "test compounds 5 μM 24 h; torin-1 20 nM and SAR-405 2 μM in the last 3 h", "text": "To further support our hypothesis that CFTR rescue following treatment with test compounds was indeed due to RNF5 inhibition, we considered additional biological processes known to be regulated by RNF5 ligase activity. To this aim, we focused our attention on ATG4B, a known regulator of basal autophagy, whose degradation is mediated by RNF5 activity.[54]In vivo ubiquitination experiments previously confirmed that inh-2 inhibits ATG4B degradation, thus increasing the basal level of autophagy.[40] […] We thus evaluated the effect of inh-2 analogues on induction of the autophagy pathway. To this aim, we monitored the formation of autophagic vacuoles in F508del-CFTR-expressing CFBE41o^– cells (Figure 8) by using the autolysosome marker monodansylcadaverine (MDC). MDC accumulates inside autophagosomes. After fusion of autophagosomes with lysosomes, MDC fluorescence increases due to the acidic environment.[55] Therefore, F508del-CFTR-expressing CFBE41o^– cells were treated for 24 h with test compounds (5 μM), VX-809 (1 μM), or DMSO alone (vehicle). In the last 3 h of incubation, we added torin-1 (20 nM), a known autophagy inducer, and SAR-405 (2 μM), a potent inhibitor of the autophagic pathway. The cells were then loaded with MDC and evaluated by high-content confocal imaging to detect signal spots (corresponding to autophagic vacuoles) in each cell.\nCFBE41o^– cells stably expressing F508del-CFTR and the HS-YFP were plated (50,000 cells/well) on good-quality clear-bottom 96-well black microplates suitable for high-content imaging. After 24 h, cells were treated with test compounds or DMSO (as the negative control). […] After 24 h, cells were incubated with 50 μM MDC (Sigma-Aldrich) in PBS at 37 °C for 10 min.[62] After incubation, cells were washed three times with PBS and immediately analyzed. High-content imaging and data analysis were performed using the Opera Phenix (PerkinElmer) high-content screening system. Wells were imaged in confocal mode using a 40× water-immersion objective. The MDC signal was laser-excited at 405 nm, and the emission wavelengths were collected between 435 and 550 nm. Data analysis of MDC spot number was performed using the Harmony software (ver 4.5) of the Opera Phenix high-content system. Data are expressed as means ± SEM, n = 3 independent experiments. Statistical significance was tested by parametric ANOVA followed by the Dunnet multiple comparisons test (all groups against the control group)."}, "[3]": {"assay": "Solubility and aggregation in PBS buffer by NMR (SPAM filter, 1H 1D and WaterLOGSY)", "format": "physicochemical", "conditions": "PBS pH 7.5, 1 μM ZnCl2, 1 mM DTT, 10% D2O, 1% DMSO-d6", "text": "Under these circumstances, it was decided to explore the solubility of all the synthetized compounds, regardless of their biological activities, to find a suitable candidate for the validation of our working hypothesis, i.e., that the compounds exert their activities by directly binding to RNF5. For that, we first calculated the predicted octanol/water partition coefficient (log Po/w) and the predicted aqueous solubility (log S) of all the analogues by QikProp (Schrödinger Release 2022-1: QikProp, Schrödinger, LLC, New York, NY, 2021, Table S1). […] To shrink down the number of compounds for solubility experiments, just the ones that had −2.0 < log Po/w < 6 and −6.5 < log S <0.5 values were selected. Among them, the PBS solubility was determined for five representative analogues: (i) 12 and 29 bearing different substituents on the benzyl group A; (ii) 34 and 40 showing the replacement of rings B and C with pyridine-4-yl moieties; (iii) 42 in which the N-phenylbenzamidine portion was replaced with a pyridine-2-yl moiety (Table 1).\nAll the NMR experiments were recorded at 298 K using a 5 mm CryoProbe QCI ^1H/^19F–^13C/^15N–D quadruple resonance, a shielded z-gradient coil, and an automatic sample changer SampleJet NMR system with temperature control. The solubility of the compounds were evaluated by ^1H 1D experiments and aggregation by WaterLOGSY, testing the compounds in buffer PBS pH 7,5, 1 μM ZnCl2, 1 mM DTT, 10% D2O (for the lock signal), and 1% DMSO-d6 at the theoretical concentrations of 20, 50, and 100 μM in the presence of 200 μM 4-trifluoromethyl benzoic acid (internal reference). For all samples, a 1D ^1H NMR experiment was recorded, the water suppression was obtained using the standard NOESY (nuclear Overhauser effect spectroscopy) preset Bruker pulse sequence, with 64k data points, a spectral width (sw) of 30 ppm, 64 scans, acquisition time (aq) of 1.835 s, a relaxation delay (d1) of 4 s, and a mixing time of 10 ms. […] The data were multiplied by an exponential window function with 1 Hz line broadening prior to Fourier transformation. For NMR binding experiments, the compounds were tested at 50 μM in buffer PBS pH 7.5, 1 μM ZnCl2, 1 mM DTT, 10% D2O (for the lock signal), and 1% DMSO-d6 in the absence and in the presence of 3 μM RNF5. WaterLOGSY experiments were recorded with the same parameters used in solubility assays, but with a higher number of scans (512); STD experiments were recorded with 128 scans, with two on (0.7 and 1 ppm) and one off (−50 ppm) resonance spectra, a Gaussian-shaped train pulse of 50 ms each was employed, with a total saturation time of the protein envelope of 5, 3, 2, 1.5, 1, or 0.5 s. A T1ρ filter of 2 ms was employed in STD experiments to eliminate the background signals from the protein. The STD spectrum was obtained by subtraction of the on-resonance spectrum from the off-resonance spectrum. Subtraction was performed by phase cycling to minimize artifacts arising from magnet and temperature instabilities."}}, "data": [{"smiles": "Cc1ns/c(=N\\C(=N\\c2ccccc2)c2ccccc2)n1Cc1ccc(F)cc1", "note": "[Compound 9, (E)-N-((Z)-4-(4-Fluorobenzyl)-3-methyl-1,2,4-thiadiazol-5(4H)-ylidene)-N′-phenylbenzimidamide]", "values": [{"measurement": "F508del-CFTR corrector activity compared with inh-2 (CFTR activity, primary screen)", "setting": "[1]", "result": "maintained the activity unaltered"}, {"measurement": "number of autophagic vacuoles (MDC signal spots)", "setting": "[2]", "result": "significantly decreased"}]}, {"smiles": "Cc1ns/c(=N\\C(=N\\c2ccccc2)c2ccccc2)n1Cc1ccc(Br)cc1", "note": "[Compound 11, (E)-N-((Z)-4-(4-Bromobenzyl)-3-methyl-1,2,4-thiadiazol-5(4H)-ylidene)-N′-phenylbenzimidamide]", "values": [{"measurement": "F508del-CFTR corrector activity compared with inh-2 (CFTR activity, primary screen)", "setting": "[1]", "result": "maintained the activity unaltered"}, {"measurement": "number of autophagic vacuoles (MDC signal spots)", "setting": "[2]", "result": "significantly increased"}]}, {"smiles": "Cc1ns/c(=N\\C(=N\\c2ccccc2)c2ccccc2)n1Cc1ccccc1N", "note": "[Compound 29, (E)-N-((Z)-4-(2-Aminobenzyl)-3-methyl-1,2,4-thiadiazol-5(4H)-ylidene)-N′-phenylbenzimidamide]", "values": [{"measurement": "F508del-CFTR corrector activity compared with inh-2 (CFTR activity, primary screen)", "setting": "[1]", "result": "comparable activity to the unsubstituted original hit inh-2"}, {"measurement": "solubility", "setting": "[3]; PBS buffer, aqueous buffer, kinetic from dmso stock, theoretical concentration 20 μM, read-out: solubility in PBS buffer by NMR, 20 μM", "result": "< 5", "unit": "µM"}, {"measurement": "aggregation in PBS buffer by NMR", "setting": "[3]; WaterLOGSY", "result": "no"}, {"measurement": "solubility at 50 µM", "setting": "[3]; theoretical concentration 50 μM", "result": "<5", "unit": "µM"}, {"measurement": "solubility at 100 µM", "setting": "[3]; theoretical concentration 100 μM", "result": "<5", "unit": "µM"}]}, {"smiles": "Cc1ns/c(=N\\C(=N\\Cc2ccccc2)c2ccccc2)n1Cc1ccccc1", "note": "[Compound 38, (E)-N′-Benzyl-N-((Z)-4-benzyl-3-methyl-1,2,4-thiadiazol-5(4H)-ylidene)benzimidamide]", "values": [{"measurement": "F508del-CFTR corrector activity compared with inh-2 (CFTR activity, primary screen)", "setting": "[1]", "result": "inactive analogs"}]}, {"smiles": "Cc1ns/c(=N\\C(=N\\C2CCCCC2)c2ccccc2)n1Cc1ccccc1", "note": "[Compound 39, (E)-N-((Z)-4-Benzyl-3-methyl-1,2,4-thiadiazol-5(4H)-ylidene)-N′-cyclohexylbenzimidamide]", "values": [{"measurement": "F508del-CFTR corrector activity compared with inh-2 (CFTR activity, primary screen)", "setting": "[1]", "result": "inactive analogs"}]}, {"smiles": "Cc1ns/c(=N\\C(=N\\c2cccnc2)c2ccccc2)n1Cc1ccccc1", "note": "[Compound 41, (E)-N-((Z)-4-Benzyl-3-methyl-1,2,4-thiadiazol-5(4H)-ylidene)-N′-(pyridin-3-yl)benzimidamide]", "values": [{"measurement": "F508del-CFTR corrector activity compared with inh-2 (CFTR activity, primary screen)", "setting": "[1]", "result": "inactive analogs"}]}, {"smiles": "COCCc1ccnc(/N=c2\\snc(C)n2Cc2ccccc2)c1", "note": "[Compound 43, (Z)-4-Benzyl-N-(4-(2-methoxyethyl)pyridin-2-yl)-3-methyl-1,2,4-thiadiazol-5(4H)-imine]", "values": [{"measurement": "F508del-CFTR corrector activity compared with inh-2 (CFTR activity, primary screen)", "setting": "[1]", "result": "inactive compounds"}]}, {"smiles": "Cc1nn(Cc2ccccc2)/c(=N/C(=N/c2ccccc2)c2ccccc2)s1", "note": "[Compound 44, (E)-N-((Z)-3-Benzyl-5-methyl-1,3,4-thiadiazol-2(3H)-ylidene)-N′-phenylbenzimidamide]", "values": [{"measurement": "F508del-CFTR corrector activity compared with inh-2 (CFTR activity, primary screen)", "setting": "[1]", "result": "abolished any corrector activity"}]}, {"smiles": "c1ccc(Cn2ncs/c2=N\\C(=N\\c2ccccc2)c2ccccc2)cc1", "note": "[Compound 45, (E)-N-((Z)-3-Benzyl-1,3,4-thiadiazol-2(3H)-ylidene)-N′-phenylbenzimidamide]", "values": [{"measurement": "F508del-CFTR corrector activity compared with inh-2 (CFTR activity, primary screen)", "setting": "[1]", "result": "abolished any corrector activity"}]}, {"smiles": "c1ccc(Cn2ccs/c2=N\\C(=N\\c2ccccc2)c2ccccc2)cc1", "note": "[Compound 46, (E)-N-((Z)-3-Benzylthiazol-2(3H)-ylidene)-N′-phenylbenzimidamide]", "values": [{"measurement": "F508del-CFTR corrector activity compared with inh-2 (CFTR activity, primary screen)", "setting": "[1]", "result": "abolished any corrector activity"}]}, {"smiles": "C[C@@H]1COCCN1c1cc(=O)n2c(n1)N(Cc1cncc(Cl)c1)[C@H](C(F)(F)F)CC2", "note": "[SAR-405, reference compound]", "values": [{"measurement": "number of autophagic vacuoles (MDC signal spots)", "setting": "[2]", "result": "significantly decreased"}]}, {"smiles": "CCC(=O)N1CCN(c2ccc(-n3c(=O)ccc4cnc5ccc(-c6cnc7ccccc7c6)cc5c43)cc2C(F)(F)F)CC1", "note": "[torin-1, reference compound]", "values": [{"measurement": "number of autophagic vacuoles (MDC signal spots)", "setting": "[2]", "result": "significantly increased"}]}]}
